Experimental data published in US20230028880A1, “CD38-BINDING AGENTS AND USES THEREOF” (Biohaven Therapeutics Ltd., priority 2019, published 2023).
Entries after “also recorded” stand apart in the source; their conditions may differ.

Legend:
[1] = system: CD56+CD138- CIML NK cells; test: Patient bone marrow with CIML NK cells: NK cell fratricide; format: cell-based, human; conditions: CIML NK cells co-incubated with patient bone marrow for 4 hrs (FIG. 8)
Protocol: Patient bone marrow (3 ml) and blood (20 ml) were shipped at ambient temperature from Discovery Biosciences. Bone marrow was diluted 1:1 with PBS, and […] of bone marrow-PBS mixture was aliquoted into 96 deep well plates. Bone marrow cells were incubated overnight until CIML cells were added next day.
PBMC were isolated from blood by Ficoll density gradient centrifugation. PBMC were centrifuged at 400 g for 10 min and re-suspended in EasySep buffer. NK cells were isolated using NK cell isolation kits from […] Technologies according to kit's manufacturers' instructions.
NK cells were re-suspended at 1×10^6 cells/ml in XVIVO15, 10% Human Serum, IL-15 (50 ng/ml), IL-12 (10 ng/ml), IL-18 (50 ng/ml), and incubated for 18 hrs. Following overnight incubation with cytokines, NK cells were washed twice with PBS 5% Human Serum Albumin, counted and re-suspended at a cell density of 2×10^5 cells/ml of XVIVO15 media. Twenty microliters (4000 cells) were added per each well containing 50 µl of bone marrow: PBS mixture. […] Control wells received XVIVO15 media. Well contents were mixed by pipetting up and down and plates were centrifuged at 400 g for 1 min.
The assay was then incubated for 4 hrs at 37° C. 5% CO2. […] Finally, cells were re-suspended in 200 µl of FACS Buffer and analyzed using Attune Flow Cytometer. Data were analyzed using FlowJo software and graphed using GraphPad Prism.

Daudi cells = test: Intraperitoneal lavage model: CFSE-labelled Daudi cells in SCID mice; format: in vivo; conditions: I-17 1, 10, 30 mg/kg + IVIG 10 mg/mouse sub-Q, 16-18 hours (FIG. 9)
Protocol: On day 0 animals were weighed and randomized. Mice were assigned to different groups and treated as described below. CFSE labelled Daudi cells were prepared as follows:
• Reagents used: PBS (Sterile) • Quenching Buffer PBS+10% FBS • RPMI (no additives) no P/S; no FBS • Invitrogen—CellTrace CFSE Cell Proliferation Kit, for Flow Cytometry (Cat#C34570) • Warm the sterile PBS and all other media to 37 degree Celsius before use for all of the following procedures listed below. […]
After 16-18 hours the mice were sacrificed via CO2 asphyxiation and had their peritoneal cavity flushed with 5 mls of PBS with 1% BSA. Samples were processed and analyzed using IP Lavage Processing is described in 00765. Samples were evaluated for tumor cell counts. […]

## CCCCC[C@@H]1NC(=O)[C@H](CCCNC(=N)N)NC(=O)[C@H](C)NC(=O)CSC[C@@H](C(=O)NCCOCCOCCOCCOCCOCCOCCn2nnc3c2CCC2C(CC3)C2COC(=O)N2CCC(C(=O)NCC(=O)N[C@H](CCC(=O)N[C@H](CCC(=O)N[C@H](CCC(=O)O)C(=O)N[C@H](CCC(=O)N[C@H](CCC(=O)NCC(=O)NCC(=O)N[C@@H](CC(=O)O)C(=O)N[C@H]3CSSC[C@@H](C(=O)N[C@H](C(=O)O)[C@@H](C)O)NC(=O)[C@H](Cc4c[nH]c5ccccc45)NC(=O)[C@H](C(C)C)NC(=O)[C@H](CC(C)C)NC(=O)[C@H](CCC(=O)O)NC(=O)CNC(=O)[C@H](CC(C)C)NC(=O)[C@H](Cc4c[nH]cn4)NC(=O)[C@H](Cc4c[nH]c5ccccc45)NC(=O)[C@H](C)NC3=O)C(=O)O)C(=O)O)C(=O)O)C(=O)O)CC2)NC(=O)[C@H](CC(=O)O)NC(=O)[C@H](CCCCC)NC(=O)[C@H](Cc2ccc(-c3ccccc3)cc2)NC(=O)[C@H](CC(C)C)NC(=O)[C@H](C(C)C)NC(=O)CNC(=O)[C@H](CC(=O)O)NC(=O)[C@H](Cc2c[nH]cn2)NC(=O)[C@H](Cc2ccc(O)cc2)NC1=O (some centres unmarked) [I-17]
[1]
  NK cell numbers / NK cell fratricide: NK cell numbers did not change; also recorded: No or low level of undesired NK cell fratricide
Daudi cells
  number of CD38 expressing Daudi cells in intraperitoneal cavity: can effectively reduce the number of target cells
